From article PMC8698377, “In Vitro Hepatic Assessment of Cineole and Its Derivatives in Common Brushtail Possums (Trichosurus vulpecula) and Rodents” (Biology, 2021)
Read-outs that look alike come from different tables or passages of the source.

Assays:
CYP3A [1] = test system: CYP3A; parameters: method as in PMID 12593759; conditions: possums, ketoconazole 5 µM, cited from earlier work
CYP3A [2] = test system: CYP3A; parameters: method as in PMID 12593759; conditions: rats, ketoconazole; cited from earlier work
[3] = test system: CYP enzymes (preferably CYP3A); parameters: method as in PMID 11465406; conditions: possums; cited from earlier work
humans = test system: humans; parameters: method as in PMID 7651249; conditions: cited from earlier work
CYP3A [4] = experiment: CYP3A catalytic activity (erythromycin-N-demethylation), possum hepatic microsomes; format: in vitro ADME, possum (Trichosurus vulpecula)
Protocol: (§1) Microsomal preparation was as previously outlined. Individual livers were placed in beakers containing 1.15% KCl. All the procedures were carried out at 0–4 °C. The liver samples were minced and homogenised in buffer A (0.1 M Tris, 0.1 M potassium chloride, 1 mM EDTA, and 20 μM butylated hydroxytoluene, at pH = 7.4) using the Teflon-glass homogeniser (5–6 vertical passes). The samples were centrifuged for 20 min at 10,000× g. The supernatant was then transferred into another set of centrifuge tubes and spun for 60 min at 100,000× g. The pellet was resuspended in Buffer B (0.1 M potassium pyrophosphate, 1 mM EDTA, and 20 μM butylated hydroxytoluene, at pH = 7.4), homogenised and recentrifuged for 60 min at 100,000× g. Finally, the pellet was homogenised in 1–2 mL of Buffer C (10 mM Tris-HCl, 1 mM EDTA, and 4% glycerol (v/v)) and stored at […] until used. The protein concentration of the microsomes was determined using the Bicinchoninic acid (BCA) method.
(§2) CYP3A catalytic activity was determined using the erythromycin-N-demethylation activity assay as described previously. The reaction mixture (final volume of 1 mL and final protein concentration of 1 mg) contained 500 µL of microsomes in 0.1 M phosphate buffer (pH = 7.4), 400 µL of erythromycin buffer (0.45 mM), and 50 µL of the test compound was pre-warmed at 37 °C for 2 min. The reaction was initiated with 50 µL of 2.5 mM […] and incubated at 37 °C for 30 min (optimised incubation time). The reaction was stopped with the addition of 330 µL of 15% zinc sulphate. Tubes were vortexed and left for 5 min (at room temperature) and then 330 µL of saturated barium hydroxide was added. Tubes were further vortexed and left for 5 min (at room temperature). Tubes were then centrifuged at 1800 g for 10 min. To 830 µL of the supernatant, 330 µL of Nash reagent (30% (w/v) ammonium acetate, 0.4% (v/v) acetyl acetone) was added and further incubated at 60 °C for 30 min. The blank tube contained 330 µL of Nash reagent and 830 µL of Milli-Q-water. The tubes were centrifuged again at 1800× g for 10 min and the absorbance was read at 415 nm. Results presented are the mean ± SEM of 3 independent experiments conducted in duplicate.

rats = test system: rats; parameters: method as in PMID 6068552; conditions: cited from earlier work
mice = test system: mice; parameters: method as in earlier work; conditions: cited from earlier work
UGT [5] = experiment: p-nitrophenol glucuronidation, rat hepatic microsomes; format: in vitro ADME
Protocol: as §1
(§3) The rate of p-nitrophenol glucuronidation was determined as previously reported. In short, the incubation mixture (500 µL in total) contained; 100 µL of 1 mg/mL microsomes, 50 µL of 1 M Tris-HCl (pH = 7.4), 20 µL of 0.25% (v/v) Triton-X 100, 50 µL of 50 mM MgCl2, 130 µL of double distilled water, 50 µL of 5 mM p-nitrophenol, 50 µL of the test compound, and 50 µL of uridine 5′-diphosphoglucuronic acid trisodium salt (UDPGA). The blank tubes had all components except UDPGA and microsomes; instead, 150 µL of 0.1 M phosphate buffer was added to equal the volume as the reaction mixture. The reaction mixture and the blank were incubated at 37 °C for 2 min. Then, 50 µL of 30 mM UDPGA was added to initiate the reaction which proceeded at 37 °C for 30 min (optimised incubation time). The reaction was stopped using 1 mL of 5% trichloroacetic acid (TCA). The tubes were centrifuged at 1800 g for 10 min and then 1 mL of supernatant was added to 250 µL of 2 M sodium hydroxide (NaOH). The absorbance was read at 405 nm. The sample reading was subtracted from the blank absorbance and divided by the extinction coefficient of p-nitrophenol ([…]) and the light path of the spectrophotometer (1 cm). The glucuronidation activities are expressed in µmol/mg/min and are the mean ± SEM of 3 independent experiments conducted in duplicate.

possums = test system: possums; parameters: method as in doi:10.1023/A:1020863216892; conditions: cited from earlier work
CYP3A [6] = experiment: CYP3A catalytic activity (erythromycin-N-demethylation), rat hepatic microsomes; format: in vitro ADME
Protocol: as §1, §2

dogs = conditions: cited from earlier work
UGT [7] = experiment: p-nitrophenol glucuronidation, mouse hepatic microsomes; format: in vitro ADME
Protocol: as §1, §3

CYP3A [8] = experiment: CYP3A catalytic activity (erythromycin-N-demethylation), mouse hepatic microsomes; format: in vitro ADME
Protocol: as §1, §2

UGT [9] = experiment: p-nitrophenol glucuronidation, possum hepatic microsomes; format: in vitro ADME, possum (Trichosurus vulpecula)
Protocol: as §1, §3

[10] = liver microsomes, pH 7.4, probe erythromycin, 12.5 µM, read-out: CYP3A catalytic activity, % of Control
[11] = liver microsomes, pH 7.4, probe erythromycin, 25 µM, read-out: CYP3A catalytic activity, % of Control

SMILES: CC(=O)N1CCN(c2ccc(OCC3COC(Cn4ccnc4)(c4ccc(Cl)cc4Cl)O3)cc2)CC1 (centres unmarked) [Ketoconazole, ketoconazole]
- reduction of the formation of 9-hydroxycineole (CYP3A [1]; cineole concentration 10 µM): 15%
- reduction of the formation of 9-hydroxycineole (CYP3A [1]; cineole concentration 100 µM): 30%
- reduction of the metabolite formation (CYP3A [2]): 85%

SMILES: CC12CCC(CC1)C(C)(C)O2 [Cineole, 1,3,3-trimethyl-2-oxabicyclo [2.2.2]octane]
- share of total intrinsic clearance, 3-hydroxycineole [3]: 14%
- share of total intrinsic clearance, 7-hydroxycineole [3]: 11%
- share of total intrinsic clearance, conversion to 9-hydroxycineole [3]: 75%
- toxic dose following ingestion (humans): < 1000 mg/kg
- CYP3A catalytic activity (CYP3A [4]; 12.5 µM): 0.40 ± 0.01 nmol/mg/min
- CYP3A catalytic activity (CYP3A [4]; 25 µM): 0.41 ± 0.01 nmol/mg/min
- inhibition of CYP3A catalytic activity (CYP3A [4]; 50 µM): no major inhibition
- activity at 30 min, 12.5 µM (CYP3A [4]; possum (Trichosurus vulpecula), liver microsomes, pH 7.4, probe erythromycin, 12.5 µM, read-out: CYP3A catalytic activity, % of Control): 99.5 ± 2.67%
- activity at 30 min, 25 µM (CYP3A [4]; possum (Trichosurus vulpecula), liver microsomes, pH 7.4, probe erythromycin, 25 µM, read-out: CYP3A catalytic activity, % of Control): 101.9 ± 0.29%
- toxic dose following ingestion (rats): 2500 mg/kg
- toxic dose following ingestion (mice): 50 mg/kg
- p-nitrophenol glucuronidation activity (UGT [5]; 12.5 µM): 2.46 ± 0.12 µmol/mg/min
- p-nitrophenol glucuronidation, % of Control (UGT [5]; 12.5 µM): 90.25 ± 6.49%
- p-nitrophenol glucuronidation activity (UGT [5]; 25 µM): 2.67 ± 0.21 µmol/mg/min
- p-nitrophenol glucuronidation, % of Control (UGT [5]; 25 µM): 98.18 ± 9.75%
- inhibition of p-nitrophenol glucuronidation (UGT [5]; 50 µM): failed to significantly inhibit
- toxic dose following ingestion (possums): 3600 mg/kg
- CYP3A catalytic activity (CYP3A [6]; 12.5 µM): 0.64 ± 0.05 nmol/mg/min
- CYP3A catalytic activity (CYP3A [6]; 25 µM): 0.65 ± 0.05 nmol/mg/min
- inhibition of CYP3A catalytic activity (CYP3A [6]; 50 µM): no major inhibition
- activity at 30 min, 12.5 µM (CYP3A [6]; [10]): 101 ± 2.31%
- activity at 30 min, 25 µM (CYP3A [6]; [11]): 101 ± 1.62%
- toxic dose following ingestion (dogs): 1500 mg/kg
- p-nitrophenol glucuronidation activity (UGT [7]; 12.5 µM): 2.00 ± 0.16 µmol/mg/min
- p-nitrophenol glucuronidation, % of Control (UGT [7]; 12.5 µM): 100.36 ± 1.99%
- p-nitrophenol glucuronidation activity (UGT [7]; 25 µM): 1.90 ± 0.16 µmol/mg/min
- p-nitrophenol glucuronidation, % of Control (UGT [7]; 25 µM): 94.21 ± 1.51%
- inhibition of p-nitrophenol glucuronidation (UGT [7]; 50 µM): failed to significantly inhibit
- CYP3A catalytic activity (CYP3A [8]; 12.5 µM): 0.68 ± 0.02 nmol/mg/min
- CYP3A catalytic activity (CYP3A [8]; 25 µM): 0.64 ± 0.02 nmol/mg/min
- activity at 30 min, 12.5 µM (CYP3A [8]; [10]): 101 ± 2.93%
- activity at 30 min, 25 µM (CYP3A [8]; [11]): 94.5 ± 2.69%
- activity at 30 min, 50 µM (CYP3A [8]; liver microsomes, pH 7.4, probe erythromycin, 50 µM, read-out: CYP3A catalytic activity, % of control): 89.3%
- p-nitrophenol glucuronidation activity (UGT [9]; 12.5 µM): 4.09 ± 0.18 µmol/mg/min
- p-nitrophenol glucuronidation, % of Control (UGT [9]; 12.5 µM): 99.39 ± 1.71%
- p-nitrophenol glucuronidation activity (UGT [9]; 25 µM): 4.18 ± 0.13 µmol/mg/min
- p-nitrophenol glucuronidation, % of Control (UGT [9]; 25 µM): 101.80 ± 1.12%
- inhibition of p-nitrophenol glucuronidation (UGT [9]; 50 µM): failed to significantly inhibit
